Test results: patent US20120065187A1 (ALCON RESEARCH, LTD, priority 2008, published 2012)

What was measured:
human H4 = target: T1, human H4 (Homo sapiens, UniProt Q9H3N8); assay: In vitro histamine receptor cell-based assay (aequorin bioluminescence), H4 antagonism; settings: CHO-K1 cells expressing human H4, aequorin and Gα16; histamine at EC80; read-out: H4 Antagonist EC50
T1 construct: host or cells: CHO-K1
Method in brief: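 CHO-K1 cells stably expressing human H4, Gα16 and mitochondrial aequorin, loaded with 5 μM coelenterazine-h, preincubated 15 min at room temperature with compound, then challenged with histamine at EC80.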

human H1 = target: T2, human H1 (Homo sapiens, UniProt P35367); assay: In vitro histamine receptor cell-based assay (aequorin bioluminescence), H1 antagonism; settings: CHO-K1 cells expressing human H1 and aequorin; histamine at EC80; read-out: H1 Antagonist EC50
T2 construct: host or cells: CHO-K1
Method in brief: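 Stable CHO-K1 lines expressing human H1 or H4 (H4 with Gα16) plus mitochondrial aequorin, loaded 4 h with 5 μM coelenterazine-h at ~21 °C. Compounds preincubated 15 min, then histamine at EC80 added; bioluminescence decrease (AUC or max–min) expressed as % of positive control (diphenhydramine for H1, JNJ7777120 for H4, 10 μM).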

[1] = test system: Hartley VAF outbred guinea pigs; assay: Allergic conjunctivitis in passively sensitized guinea pigs (conjunctival EPO activity); assay type: in vivo; design: key: +: a ≦0.1% qd dose was statistically equivalent to dexamethasone with respect to reduction of EPO activity; −: the compound was statistically inferior to dexamethasone and not different than vehicle; settings: ≦0.1% qd topical, 1 hour prior to ovalbumin challenge; reduction of conjunctival EPO activity vs dexamethasone
Experimental: (§1) Male Hartley VAF outbred guinea pigs were passively sensitized to ovalbumin by a single OD subconjunctival injection of undiluted guinea pig anti-ovalbumin antiserum 24 hours before OD topical challenge with 500 μg ovalbumin in saline. Control animals were injected with saline only and challenged with ovalbumin. To determine acute phase drug efficacy, 30 min after challenge animals were clinically scored by a masked observer for severity of signs of conjunctivitis based on a standard scale. Test compounds were administered topically 1 hour prior to challenge (QD protocol), or 1 hour prior to challenge and again 8 hours after challenge (BID protocol). Twenty-four hours after challenge, animals were euthanized and conjunctivae were harvested for determination of tissue eosinophil peroxidase (EPO) concentration as a marker of allergic inflammation. Homogenates of freshly collected tissues were prepared by shaking the tissues in 2 mL round-bottom tubes containing 0.5 mL of homogenization buffer (50 mM Tris HCl, pH 8.0, 6 mM KBr) and one 5-mm stainless steel bead on a Qiagen TissueLyser at 30 Hz for 5 min. Homogenates were frozen and thawed once, then centrifuged at 10,000 rpm for 5 min. EPO activity in supernatants was measured by reacting diluted homogenates with a solution of 6 mM o-phenylenediamine substrate and 8.8 mM H2O2 in homogenization buffer for 3 min. The reaction was stopped with 4M H2SO4 and absorbances were measured at […] on a spectrophotometric plate reader. Total EPO in samples was calculated from a standard curve of recombinant human EPO in each assay. EPO activity was normalized to total protein concentration (Pierce BCA assay) in supernatants. Background EPO activity was determined from the unsensitized, antigen-challenged control group. Percent inhibition was calculated from the sensitized, antigen-challenged, vehicle-treated control group in each experiment. Ovalbumin-injected animals dosed topically with 0.1% w/v dexamethasone (dex) served as positive control. Groups were compared by ANOVA with Dunnett's or Tukey's post-hoc tests where appropriate with significance assigned at the 95% confidence level.
(§2) The table below summarizes the results.

[2] = test system: Hartley VAF outbred guinea pigs; assay: as above; assay type: in vivo; design: key: +: a 0.01% bid dose was statistically equivalent to dexamethasone with respect to reduction of EPO activity; −: the compound was statistically inferior to dexamethasone and not different than vehicle; settings: 0.01% bid topical, 1 hour prior to and 8 hours after ovalbumin challenge; reduction of conjunctival EPO activity vs dexamethasone
Experimental: as §1, §2

T1 sequence (Q9H3N8 whole entry): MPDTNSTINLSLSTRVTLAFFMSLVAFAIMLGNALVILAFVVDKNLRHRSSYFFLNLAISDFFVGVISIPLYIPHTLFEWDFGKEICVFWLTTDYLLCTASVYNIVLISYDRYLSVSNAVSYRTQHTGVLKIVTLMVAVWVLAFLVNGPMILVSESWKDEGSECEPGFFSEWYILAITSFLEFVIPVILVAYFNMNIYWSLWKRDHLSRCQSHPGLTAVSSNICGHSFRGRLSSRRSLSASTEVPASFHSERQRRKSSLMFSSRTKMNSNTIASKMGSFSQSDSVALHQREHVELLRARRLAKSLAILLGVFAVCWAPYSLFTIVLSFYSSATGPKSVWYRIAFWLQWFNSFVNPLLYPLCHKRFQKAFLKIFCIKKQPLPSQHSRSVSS
T2 sequence (P35367 whole entry): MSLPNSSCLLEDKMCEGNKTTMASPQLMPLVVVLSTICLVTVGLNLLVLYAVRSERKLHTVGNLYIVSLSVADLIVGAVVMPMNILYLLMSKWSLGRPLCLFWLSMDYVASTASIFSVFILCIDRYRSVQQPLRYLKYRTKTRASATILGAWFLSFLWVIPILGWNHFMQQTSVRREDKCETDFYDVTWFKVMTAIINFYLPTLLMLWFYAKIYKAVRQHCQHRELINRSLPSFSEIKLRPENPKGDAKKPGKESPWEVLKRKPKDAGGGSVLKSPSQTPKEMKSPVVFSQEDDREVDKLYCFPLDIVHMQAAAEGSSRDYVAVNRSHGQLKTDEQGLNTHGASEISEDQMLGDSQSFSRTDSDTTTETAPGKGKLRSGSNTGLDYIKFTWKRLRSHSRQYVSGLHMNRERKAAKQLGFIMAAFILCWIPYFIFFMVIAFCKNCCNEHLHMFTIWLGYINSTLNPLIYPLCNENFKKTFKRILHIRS

In the case of `Clc1ccc2nc(N3CCNCC3)c3nncn3c2c1` [Example 57, 8-chloro-4-(piperazin-1-yl)-[1,2,4]triazolo[4,3-a]quinoxaline], the EC50 (human H4) is reported as < 10 µM, the EC50 (human H1) is reported as > 10 µM and the QD activity [1] is reported as “+”. The BID activity [2] was “+”.
For `CN1CCN(c2nc3ccc(Cl)cc3n3cnnc23)CC1` [Example 55, 8-chloro-4-(4-methylpiperazin-1-yl)-[1,2,4]triazolo[4,3-a]quinoxaline], the EC50 (human H4) was < 10 µM, the EC50 (human H1) was > 10 µM and the QD activity [1] was “+”. For the same molecule, the BID activity [2] was “+”.
